The results in this text go back to patent publication US10370373B2, “Antitumor derivatives for differentiation therapy” (THE CLEVELAND CLINIC FOUNDATION, priority 2016, dated 2019).

Assay type in all cases: cell-based
Data set [1] concerns THP-1 cells. The data set is described as follows: Annexin-PI flow cytometry for apoptosis. The settings on record: 5 days after treatment. The method, then:
(§1) (A) CD11b flow cytometry was performed on THP-1 cells 5 days after the indicated treatments. (B) Annexin-PI flow cytometry of the same cells to determine the percent of cells that were undergoing apoptosis after treatments with the different compounds. Camptothecin is a positive apoptosis inducer.
On the technique in general: Flow cytometry measures light scatter and fluorescence of single cells or particles in a stream.

Data set [2] deals with THP1 AML cells. Put plainly: CD11b / CD14 differentiation marker flow cytometry. The settings on record: THP-1 cells, 5 days after treatment. As for the experimental part: (§2) E) Elevation of differentiation markers CD11b and CD14. […] G) Upregulation of p27 (CDKN1B) (ED3 lysates were unavailable).
as §1

In data set [3] the test system is THP1 AML cells. The data set is described as follows: cell number / growth of THP1 AML cells. To be noted: derivatives at 1 mM vs ED2 at 10 μM.
Text: as §2

Data set [4] can be described thus: cell viability (zolpidem).

Consider `CCCCSc1ccc2nc(-c3ccc(OCCCN)cc3)cn2c1` [NH2, 3-(4-(6-(butylthio)imidazo[1,2-a]pyridin-2-yl)phenoxy)propan-1-amine], for which the “activation of apoptosis pathway (Annexin-PI)” value in data set [1] was “do not activate the apoptosis pathway”. Also, in data set [2], the “differentiation induction via CD11b flow cytometry versus decitabine and ED2” value is “better differentiation inducers than decitabine (DAC) and ED2”. The “growth inhibitory activity against THP-1 cells versus ED2” value in data set [3] was “more potent growth inhibitory activity”.

`O=C(O)CCCC[C@@H]1SC[C@@H]2NC(=O)N[C@@H]21` [biotin]: the “activation of apoptosis pathway (Annexin-PI)” value in data set [1] is reported as “do not activate the apoptosis pathway”. Also, the “differentiation induction via CD11b flow cytometry versus decitabine and ED2” value in data set [2] was “better differentiation inducers than decitabine (DAC) and ED2”. Moreover, the “growth inhibitory activity against THP-1 cells versus ED2” value in data set [3] is “more potent growth inhibitory activity”.

On to `Cc1ccc(-c2nc3ccc(C)cn3c2CC(=O)N(C)C)cc1` [zolpidem], for which the cell viability entry in data set [4] is “does not affect cell viability”.
